From ChEMBL document CHEMBL6114980, “Single or double lipid-modified ultra-short antimicrobial peptides for treating infections caused by resistant bacteria” (Eur J Med Chem, 2025)

Assays:
Format in all cases: functional
Escherichia coli [1] = assay: Antibacterial activity against Escherichia coli 850 assessed as reduction in bacterial growth incubated for 18 to 24 hrs by broth microdilution method; settings: time 18-24 hrs
Escherichia coli [2] = assay: Antibacterial activity against Escherichia coli assessed as reduction in survival bacterial growth in presence of FeCl3 measured after 18 to 24 hrs (reference value: 2 microM); settings: time 18-24 hrs
Staphylococcus aureus [3] = assay: Antibacterial activity against methicillin-resistant Staphylococcus aureus 75 assessed as reduction in bacterial growth incubated for 18 to 24 hrs by broth microdilution method; settings: time 18-24 hrs
Pseudomonas aeruginosa [4] = assay: Antibacterial activity against Pseudomonas aeruginosa 124 assessed as reduction in bacterial growth incubated for 18 to 24 hrs by broth microdilution method; settings: time 18-24 hrs
Staphylococcus aureus [5] = assay: Antibacterial activity against Staphylococcus aureus assessed as reduction in survival bacterial growth by measuring fold change in presence of NaCl measured after 18 to 24 hrs; settings: time 18-24 hrs
Staphylococcus aureus [6] = assay: Antibacterial activity against Staphylococcus aureus assessed as reduction in survival bacterial growth in presence of NaCl measured after 18 to 24 hrs (reference value: 8 microM); settings: time 18-24 hrs
Staphylococcus aureus [7] = assay: Antibacterial activity against Staphylococcus aureus 125 assessed as reduction in bacterial growth incubated for 18 to 24 hrs by broth microdilution method; settings: time 18-24 hrs
Acinetobacter baumannii [8] = assay: Antibacterial activity against Acinetobacter baumannii 5444 assessed as reduction in bacterial growth incubated for 18 to 24 hrs by broth microdilution method; settings: time 18-24 hrs
Staphylococcus aureus [9] = assay: Antibacterial activity against Staphylococcus aureus 794 assessed as reduction in bacterial growth incubated for 18 to 24 hrs by broth microdilution method; settings: time 18-24 hrs
Staphylococcus aureus [10] = assay: Antibacterial activity against methicillin-resistant Staphylococcus aureus ATCC 33591 assessed as reduction in bacterial growth incubated for 18 to 24 hrs by broth microdilution method; settings: time 18-24 hrs
Escherichia coli [11] = assay: Antibacterial activity against Escherichia coli assessed as reduction in survival bacterial growth in presence of KCl measured after 18 to 24 hrs (reference value: 2 microM); settings: time 18-24 hrs
Escherichia coli [12] = assay: Antibacterial activity against Escherichia coli assessed as reduction in survival bacterial growth by measuring fold change in presence of MgCl2 measured after 18 to 24 hrs; settings: time 18-24 hrs
Klebsiella pneumoniae [13] = assay: Antibacterial activity against Klebsiella pneumoniae ATCC 700603 assessed as reduction in bacterial growth incubated for 18 to 24 hrs by broth microdilution method; settings: time 18-24 hrs
Escherichia coli [14] = assay: Antibacterial activity against Escherichia coli assessed as reduction in survival bacterial growth in presence of ZnCl2 measured after 18 to 24 hrs (reference value: 2 microM); settings: time 18-24 hrs
Acinetobacter baumannii [15] = assay: Antibacterial activity against Acinetobacter baumannii ATCC 19606 assessed as reduction in bacterial growth incubated for 18 to 24 hrs by broth microdilution method; settings: time 18-24 hrs
Staphylococcus aureus [16] = assay: Antibacterial activity against Staphylococcus aureus assessed as reduction in survival bacterial growth in presence of FeCl3 measured after 18 to 24 hrs (reference value: 8 microM); settings: time 18-24 hrs
Escherichia coli [17] = assay: Antibacterial activity against Escherichia coli ATCC 25922 assessed as reduction in bacterial growth incubated for 18 to 24 hrs by broth microdilution method; settings: time 18-24 hrs
Pseudomonas aeruginosa [18] = assay: Antibacterial activity against Pseudomonas aeruginosa ATCC 27853 assessed as reduction in bacterial growth incubated for 18 to 24 hrs by broth microdilution method; settings: time 18-24 hrs
Escherichia coli [19] = assay: Antibacterial activity against Escherichia coli assessed as reduction in survival bacterial growth in presence of MgCl2 measured after 18 to 24 hrs (reference value: 2 microM); settings: time 18-24 hrs
Pseudomonas aeruginosa [20] = assay: Antibacterial activity against Pseudomonas aeruginosa 6434N assessed as reduction in bacterial growth incubated for 18 to 24 hrs by broth microdilution method; settings: time 18-24 hrs
Escherichia coli [21] = assay: Antibacterial activity against Escherichia coli assessed as reduction in survival bacterial growth by measuring fold change in presence of ZnCl2 measured after 18 to 24 hrs; settings: time 18-24 hrs
[22] = test system: Staphylococcus epidermidis; assay: Antibacterial activity against Staphylococcus epidermidis ATCC 12228 assessed as reduction in bacterial growth incubated for 18 to 24 hrs by broth microdilution method; settings: time 18-24 hrs
Staphylococcus aureus [23] = assay: Antibacterial activity against Staphylococcus aureus assessed as reduction in survival bacterial growth in presence of Mgcl2 measured after 18 to 24 hrs (reference value: 8 microM); settings: time 18-24 hrs
Escherichia coli [24] = assay: Antibacterial activity against Escherichia coli assessed as reduction in survival bacterial growth by measuring fold change in presence of NaCl measured after 18 to 24 hrs; settings: time 18-24 hrs
Klebsiella pneumoniae [25] = assay: Antibacterial activity against Klebsiella pneumoniae ATCC 700603 infected in male BALB/c mouse lung infection model assessed as reduction in bacterial load at 5 mg/kg, ip measured after 6 to 36 hrs (reference value: 1.77 10^6CFU/mg); settings: time 6-36 hrs
Staphylococcus aureus [26] = assay: Antibacterial activity against Staphylococcus aureus ATCC 25923 assessed as reduction in bacterial growth incubated for 18 to 24 hrs by broth microdilution method; settings: time 18-24 hrs
Enterococcus faecalis = assay: Antibacterial activity against Enterococcus faecalis ATCC 29212 assessed as reduction in bacterial growth incubated for 18 to 24 hrs by broth microdilution method; settings: time 18-24 hrs
Escherichia coli [27] = assay: Bactericidal activity against Escherichia coli 25922 assessed as eradication of bacteria at 2 times MIC measured within 1 hr by time-kill assay relative to control
Acinetobacter baumannii [28] = assay: Antibacterial activity against Acinetobacter baumannii 92359 assessed as reduction in bacterial growth incubated for 18 to 24 hrs by broth microdilution method; settings: time 18-24 hrs
Escherichia coli [29] = assay: Antibacterial activity against Escherichia coli assessed as reduction in survival bacterial growth in presence of NaCl measured after 18 to 24 hrs (reference value: 2 microM); settings: time 18-24 hrs
Escherichia coli [30] = assay: Antibacterial activity against Escherichia coli 780 assessed as reduction in bacterial growth incubated for 18 to 24 hrs by broth microdilution method; settings: time 18-24 hrs
Staphylococcus aureus [31] = assay: Antibacterial activity against Staphylococcus aureus assessed as reduction in survival bacterial growth in presence of KCl measured after 18 to 24 hrs (reference value: 8 microM); settings: time 18-24 hrs
Staphylococcus aureus [32] = assay: Antibacterial activity against Staphylococcus aureus assessed as reduction in survival bacterial growth by measuring fold change in presence of MgCl2 measured after 18 to 24 hrs; settings: time 18-24 hrs
Staphylococcus aureus [33] = assay: Antibacterial activity against Staphylococcus aureus assessed as reduction in survival bacterial growth in presence of ZnCl2 measured after 18 to 24 hrs (reference value: 8 microM); settings: time 18-24 hrs

For CC(C)CCCCC(=O)N[C@@H](CCN)C(=O)N[C@H](C(=O)N[C@@H](CCN)C(=O)N[C@H]1CCNC(=O)[C@H]([C@@H](C)O)NC(=O)[C@H](CCN)NC(=O)[C@H](CCN)NC(=O)[C@H](CC(C)C)NC(=O)[C@@H](Cc2ccccc2)NC(=O)[C@H](CCN)NC1=O)[C@@H](C)O.CC[C@H](C)CCCCC(=O)N[C@@H](CCN)C(=O)N[C@H](C(=O)N[C@@H](CCN)C(=O)N[C@H]1CCNC(=O)[C@H]([C@@H](C)O)NC(=O)[C@H](CCN)NC(=O)[C@H](CCN)NC(=O)[C@H](CC(C)C)NC(=O)[C@@H](Cc2ccccc2)NC(=O)[C@H](CCN)NC1=O)[C@@H](C)O, the MIC (Escherichia coli [1]) was 4 µM, the MIC (Escherichia coli [2]) was 2 µM and the MIC (Staphylococcus aureus [3]) was 16 µM. The MIC (Pseudomonas aeruginosa [4]) was 16 µM, the “fold change (FC)” value (Staphylococcus aureus [5]) was 16 and the MIC (Staphylococcus aureus [6]) was 128 µM. The MIC (Staphylococcus aureus [7]) was 8 µM, the MIC (Acinetobacter baumannii [8]) was 32 µM and the MIC (Staphylococcus aureus [9]) was 16 µM. For the same molecule, the MIC (Staphylococcus aureus [10]) was 16 µM, the MIC (Escherichia coli [11]) was 2 µM and the “fold change (FC)” value (Escherichia coli [12]) was 2. It also gave an MIC (Klebsiella pneumoniae [13]) of 4 µM, an MIC (Escherichia coli [14]) of 1 µM and an MIC (Acinetobacter baumannii [15]) of 4 µM. It also gave an MIC (Staphylococcus aureus [16]) of 8 µM, an MIC (Escherichia coli [17]) of 2 µM and an MIC (Pseudomonas aeruginosa [18]) of 4 µM. The MIC (Escherichia coli [19]) was 2 µM, the MIC (Pseudomonas aeruginosa [20]) was 2 µM and the “fold change (FC)” value (Escherichia coli [21]) was 2. For the same molecule, the MIC [22] was 8 µM, the MIC (Staphylococcus aureus [23]) was 16 µM and the “fold change (FC)” value (Escherichia coli [24]) was 16. For the same molecule, the Activity (Klebsiella pneumoniae [25]) was 1.54 10^4CFU/mg, the MIC (Staphylococcus aureus [26]) was 8 µM and the MIC (Enterococcus faecalis) was 128 µM. It also gave an Activity (Escherichia coli [27]) of 100%, an MIC (Acinetobacter baumannii [28]) of 32 µM and an MIC (Escherichia coli [29]) of 2 µM. The MIC (Escherichia coli [30]) was 4 µM, the MIC (Staphylococcus aureus [31]) was 8 µM and the “fold change (FC)” value (Staphylococcus aureus [32]) was 2. The MIC (Staphylococcus aureus [33]) was 8 µM.
